Patent US11691972B2, “Compounds for targeted degradation of BRD9” (C4 Therapeutics, Inc., priority 2020, dated 2023)
Where two headings read alike, the source gives them in different places.

Target: T1, BRD9 (Homo sapiens, UniProt Q9H8M2)
T1 sequence (Q9H8M2 1-597): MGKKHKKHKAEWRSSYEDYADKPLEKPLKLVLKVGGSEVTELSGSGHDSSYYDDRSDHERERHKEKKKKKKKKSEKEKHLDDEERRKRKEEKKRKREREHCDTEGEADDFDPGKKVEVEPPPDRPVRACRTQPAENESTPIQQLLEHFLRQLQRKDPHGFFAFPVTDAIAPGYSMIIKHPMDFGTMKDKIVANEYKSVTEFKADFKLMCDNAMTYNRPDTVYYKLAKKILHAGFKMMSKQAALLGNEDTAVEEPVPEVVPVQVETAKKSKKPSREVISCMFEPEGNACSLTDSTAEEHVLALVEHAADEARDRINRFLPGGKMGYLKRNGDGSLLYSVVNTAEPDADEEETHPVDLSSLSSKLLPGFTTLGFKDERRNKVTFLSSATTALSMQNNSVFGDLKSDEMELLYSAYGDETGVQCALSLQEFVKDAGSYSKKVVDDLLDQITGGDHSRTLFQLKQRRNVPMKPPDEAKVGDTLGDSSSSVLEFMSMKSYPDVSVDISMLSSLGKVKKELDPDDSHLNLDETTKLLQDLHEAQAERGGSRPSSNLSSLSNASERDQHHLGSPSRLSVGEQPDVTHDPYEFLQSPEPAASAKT
Experiment: HiBiT BRD9 degradation assay in 293T.166 (BRD9-HiBiT) cells
Assay type: cell-based
Parameters: endogenously expressing BRD9 with HiBiT fusion tag via CRISPR; host or cells: 293T.166 (BRD9-HiBiT), also expressing LgBiT ectopically
Settings: 293T.166 cells, 2.0 hours, read-out: HiBiT-Degradation 293T.166 BRD9 2.0 hours (DC50)
Experimental: Selected compounds were tested in a BRD9 degradation assay using the HiBit Method.
Dulbecco's modified Eagle medium (DMEM) without phenol red and fetal bovine serum (FBS) were purchased from Gibco (Grand Island, N.Y., USA). Nano-Glo® HiBiT Lytic Assay System was purchased from Promega (Madison, Wis., USA). 293T.166 (BRD9-HiBiT) cell line, endogenously expressing BRD9 with HiBiT fusion tag via CRISPR and ectopically expressing LgBiT tag, was purchased from Promega (Madison, Wis., USA). 293T.167 (BRD7-HiBiT) cell line, endogenously expressing BRD7 with HiBiT fusion tag via CRISPR and ectopically expressing LgBiT tag, was purchased from Promega (Madison, Wis., USA). 293T.92 (BRD4-HiBiT) cell line, endogenously expressing BRD4 with HiBiT fusion tag via CRISPR and ectopically expressing LgBiT tag, was generated in-house. Cell culture flasks and 384-well microplates were acquired from VWR (Radnor, Pa., USA).
BRD9 degradation was determined based on quantification of luminescent signal using Nano-Glo® HiBiT Lytic Assay kit. Test compounds were added to the 384-well plate from a top concentration of 10 μM with 11 points, half log titration in duplicates. 293T.166 cells were added into 384-well plates at a cell density of 10,000 cells per well. The plates were kept at 37° C. with 5% CO2 for 2 hours. BRD7 and BRD4 degradation was similarly determined with 293T.167 cells and 293T.92 cells, respectively. The cells treated in the absence of the test compound were the negative control and the cells without Nano-Glo® HiBiT Lytic reagent were the positive control. After 2-hour incubation, Nano-Glo® HiBiT Lytic Assay reagents were added to the cells. Luminescence was acquired on EnVision™ Multilabel Reader (PerkinElmer, Santa Clara, Calif., USA).

Row | SMILES | DC50 (Table 1, class symbols) [nM] | also measured
1 | COc1cc(-c2cn(C)c(=O)c3[nH]ncc23)cc(OC)c1CN1CCN(C(=O)CN2CCC(c3ccc(NC4CCC(=O)NC4=O)cc3)CC2)CC1 (single isomer, unassigned) [Compound 3] | < 100 | –
2 | COc1cc(-c2cn(C)c(=O)c3cnccc23)cc(OC)c1CN1CCN(C(=O)CC2CCN(c3ccc(NC4CCC(=O)NC4=O)cc3C(F)(F)F)CC2)CC1 (single isomer, unassigned) [Compound 55] | < 100 | –
3 | COc1cc(-c2cn(C)c(=O)c3cnccc23)cc(OC)c1CN1CCN(C(=O)CC2CCN(c3ccc(NC4CCC(=O)NC4=O)cc3C(F)(F)F)CC2)CC1 (single isomer, unassigned) [Compound 56] | < 100 | –
4 | COc1cc(-c2cn(C)c(=O)c(C)c2C)cc(OC)c1CN1CCC(N2CCN(c3ccc(NC4CCC(=O)NC4=O)cc3F)CC2)C(F)(F)C1 (single isomer, unassigned) [Compound 173, 3-[4-[4-[1-[[2,6-dimethoxy-4-(1,4,5-trimethyl-6-oxo-3-pyridyl)phenyl]methyl]-3,3-difluoro-4-piperidyl]piperazin-1-yl]-3-fluoro-anilino]piperidine-2,6-dione] | < 100 | –
5 | COc1cc(-c2cn(C)c(=O)c(C)c2C)cc(OC)c1CN1CCC(N2CCN(c3ccc(NC4CCC(=O)NC4=O)cc3F)CC2)C(F)(F)C1 (single isomer, unassigned) [Compound 174, 3-[4-[4-[1-[[2,6-dimethoxy-4-(1,4,5-trimethyl-6-oxo-3-pyridyl)phenyl]methyl]-3,3-difluoro-4-piperidyl]piperazin-1-yl]-3-fluoro-anilino]piperidine-2,6-dione] | < 100 | –
6 | COc1cc(-c2cn(C)c(=O)c(C)c2C)cc(OC)c1CN1CCC(N2CCN(c3ccc(NC4CCC(=O)NC4=O)cc3F)CC2)C(F)(F)C1 (single isomer, unassigned) [Compound 175, 3-[4-[4-[1-[[2,6-dimethoxy-4-(1,4,5-trimethyl-6-oxo-3-pyridyl)phenyl]methyl]-3,3-difluoro-4-piperidyl]piperazin-1-yl]-3-fluoro-anilino]piperidine-2,6-dione] | < 100 | –
7 | COc1cc(-c2cn(C)c(=O)c3cnccc23)cc(Cl)c1CN1CCC(N2CCN(c3ccc(NC4CCC(=O)NC4=O)cc3F)CC2)C(F)(F)C1 (single isomer, unassigned) [Compound 178, 3-[4-[4-[1-[[2-chloro-6-methoxy-4-(2-methyl-1-oxo-2,7-naphthyridin-4-yl)phenyl]methyl]-3,3-difluoro-4-piperidyl]piperazin-1-yl]-3-fluoro-anilino]piperidine-2,6-dione] | < 100 | –
8 | COc1cc(-c2cn(C)c(=O)c3cnccc23)cc(Cl)c1CN1CCC(N2CCN(c3ccc(NC4CCC(=O)NC4=O)cc3F)CC2)C(F)(F)C1 (single isomer, unassigned) [Compound 181, 3-[4-[4-[1-[[2-chloro-6-methoxy-4-(2-methyl-1-oxo-2,7-naphthyridin-4-yl)phenyl]methyl]-3,3-difluoro-4-piperidyl]piperazin-1-yl]-3-fluoro-anilino]piperidine-2,6-dione] | < 100 | –
9 | Cc1c(-c2ccc(C(=O)N3CCC(C4CCN(c5ccc(NC6CCC(=O)NC6=O)cc5F)CC4)CC3)c(OC(F)(F)F)c2)cn(C)c(=O)c1C (single isomer, unassigned) [Compound 213, 3-[3-fluoro-4-[4-[1-[2-(trifluoromethoxy)-4-(1,4,5-trimethyl-6-oxo-3-pyridyl)benzoyl]-4-piperidyl]-1-piperidyl]anilino]piperidine-2,6-dione] | – | DC50 (Table 1, numeric bound): > 800 nM
10 | COc1cc(-c2cn(C)c(=O)c(C)c2C)cc(Cl)c1CN1CCc2c(CC3CCN(c4ccc(NC5CCC(=O)NC5=O)cc4F)CC3)cccc2C1 (single isomer, unassigned) [Compound 249] | – | DC50 (Table 2, numeric bound): > 800 nM
11 | COc1cc(-c2cn(C)c(=O)c(C)c2C)cc(Cl)c1CN1CCc2c(CC3CCN(c4ccc(NC5CCC(=O)NC5=O)cc4F)CC3)cccc2C1 (single isomer, unassigned) [Compound 250] | – | DC50 (Table 2, class symbols): < 100 nM
12 | COc1cc(-c2cn(C)c(=O)c(C)c2C)cc(Cl)c1CN1CCC(C2CCN(c3ccc(NC4CCC(=O)NC4=O)cc3F)CC2)C(F)(F)C1 (single isomer, unassigned) [Compound 256] | – | DC50 (Table 2, class symbols): < 100 nM
13 | COc1cc(-c2cn(C)c(=O)c(C)c2C)cc(Cl)c1CN1CCC(C2CCN(c3ccc(NC4CCC(=O)NC4=O)cc3F)CC2)C(F)(F)C1 (single isomer, unassigned) [Compound 257] | – | DC50 (Table 2, class symbols): < 100 nM
14 | COc1cc(-c2cn(C)c(=O)c(C)c2C)cc(Cl)c1CN1CCC(C2CCN(c3ccc(NC4CCC(=O)NC4=O)cc3F)CC2)C(F)(F)C1 (single isomer, unassigned) [Compound 258] | – | DC50 (Table 2, class symbols): 100 to 500 nM
15 | COc1cc(-c2cn(C)c(=O)c(C)c2C)cc(Cl)c1CN1CCC(C2CCN(c3ccc(NC4CCC(=O)NC4=O)cc3F)CC2)C(F)(F)C1 (single isomer, unassigned) [Compound 259] | – | DC50 (Table 2, class symbols): < 100 nM

More lines, main results first:

Row | DC50 (Table 1, class symbols) [nM] | SMILES | also measured
16 | < 100 | COc1cc(-c2cn(C)c(=O)c3[nH]ncc23)cc(OC)c1CN1CCN(C(=O)CN2CCC(c3ccc(NC4CCC(=O)NC4=O)cc3)CC2)CC1 (single isomer, unassigned) [Compound 2] | –
17 | < 100 | COc1cc(-c2cn(C)c(=O)c3cnccc23)cc(Cl)c1CN1CCC(N2CCN(c3ccc(NC4CCC(=O)NC4=O)cc3F)CC2)C(F)(F)C1 (single isomer, unassigned) [Compound 179, 3-[4-[4-[1-[[2-chloro-6-methoxy-4-(2-methyl-1-oxo-2,7-naphthyridin-4-yl)phenyl]methyl]-3,3-difluoro-4-piperidyl]piperazin-1-yl]-3-fluoro-anilino]piperidine-2,6-dione] | –
18 | < 100 | COc1cc(-c2cn(C)c(=O)c3cnccc23)cc(Cl)c1CN1CCC(N2CCN(c3ccc(NC4CCC(=O)NC4=O)cc3F)CC2)C(F)(F)C1 (single isomer, unassigned) [Compound 180, 3-[4-[4-[1-[[2-chloro-6-methoxy-4-(2-methyl-1-oxo-2,7-naphthyridin-4-yl)phenyl]methyl]-3,3-difluoro-4-piperidyl]piperazin-1-yl]-3-fluoro-anilino]piperidine-2,6-dione] | –
19 | < 100 | COc1cc(-c2cn(C)c(=O)c3[nH]ncc23)cc(Cl)c1CN1CCC(CC(=O)N2CCC(c3ccc(NC4CCC(=O)NC4=O)cc3)CC2)C(F)(F)C1 (single isomer, unassigned) [Compound 203, 3-[4-[1-[2-[1-[[2-chloro-6-methoxy-4-(6-methyl-7-oxo-1H-pyrazolo[3,4-c]pyridin-4-yl)phenyl]methyl]-3,3-difluoro-4-piperidyl]acetyl]-4-piperidyl]anilino]piperidine-2,6-dione] | –
20 | < 100 | COc1cc(-c2cn(C)c(=O)c3[nH]ncc23)cc(Cl)c1CN1CCC(CC(=O)N2CCC(c3ccc(NC4CCC(=O)NC4=O)cc3)CC2)C(F)(F)C1 (single isomer, unassigned) [Compound 204] | –
21 | < 100 | Cc1c(-c2ccc(C(=O)N3CCC(C4CCN(c5ccc(NC6CCC(=O)NC6=O)cc5F)CC4)CC3)c(OC(F)(F)F)c2)cn(C)c(=O)c1C (single isomer, unassigned) [Compound 214, 3-[3-fluoro-4-[4-[1-[2-(trifluoromethoxy)-4-(1,4,5-trimethyl-6-oxo-3-pyridyl)benzoyl]-4-piperidyl]-1-piperidyl]anilino]piperidine-2,6-dione] | –
